Results on 21 molecules are retold here after patent US8796268B2, “Heteroaryls and uses thereof” (Millennium Pharmaceuticals, Inc., priority 2010, dated 2014).

What all share (assay type): biochemical
One assay deals with T1, Human PI3K alpha (Homo sapiens, UniProt P42336).
T1 construct: His (N); host or cells: SF9 insect cells (baculovirus)
As to the kind of experiment: Human PI3K alpha enzyme assay (HTRF). Conditions: concentration not given, b1387 states 1.1 μM for PI3K α and β; for inhibition at 1.1 µM: read-out: p110 alpha Percent Inhibition. Background: Time-resolved FRET reads energy transfer from a long-lived donor to a nearby acceptor.

Another assay deals with T2, Human PI3K beta (Homo sapiens, UniProt P42338).
T2 construct: His (N); host or cells: SF9 insect cells (baculovirus)
As to the kind of experiment: Human PI3K beta enzyme assay (HTRF). The settings on record: concentration not given, b1387 states 1.1 μM for PI3K α and β; for inhibition at 1.1 µM: read-out: p110 beta Percent Inhibition. In outline:
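Compounds were mixed with 25 uM ATP, then with 3.5 uM di-C8 PI(4,5)P2 and His-tagged PI3K isoform (β 5.25 nM, δ 0.75 nM, γ 5 nM) at pH 7.00. After 30 min at room temperature, EDTA stopped the reaction and PIP3 was measured by HTRF over 1 h.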

In another assay the target is T3, Human PI3K delta (Homo sapiens, UniProt O00329).
T3 construct: His (N); host or cells: SF9 insect cells (baculovirus)
Description: Human PI3K delta enzyme assay (HTRF). The settings on record: concentration not given, b1389 states 1.0 μM for PI3K δ and γ; for inhibition at 1 µM: read-out: p110 delta Percent Inhibition. The text has this: (§1) The catalytic subunits of PI3Ks are cloned into either pDEST8(p110 alpha) or pDEST10(p110beta, p110delta, and p110gamma) as N-terminal His tagged fusion proteins using the Gateway system (Invitrogen, catalog#11804-010 for pDEST8 and 11806-015 for pDEST10). The sequences are verified before recombinant protein expression using the Baculovirus Expression System with Gateway® Technology. The accession numbers for the subunits are as follows: • p110 alpha (GB:U79143) • p110beta (GB: S67334) • p110delta (GB: U86453) • p110gamma (GB: X83368) • The regulatory subunits of PI3Ks are cloned into pDEST8 as un-tagged protein using the Gateway system (Catalog#11804-010). The sequences are verified before recombinant protein expression using the Baculovirus Expression System with Gateway® Technology. The accession numbers for the subunits are as following: • p85 alpha (GB: BC030815) • p101(GB: AB028925) • VPS34 (accession number GB:BC033004) is cloned into pDEST20—Thombin as N-terminal GST tagged fusion proteins using the Gateway system (Invitrogen, catalog#11804-013). The sequences are verified before recombinant protein expression using the Baculovirus Expression System with Gateway® Technology.
(§2) For expression of the p110 complexes, the p85 (MOI of 4) is co-infected with p110 alpha, beta, and delta respectively (1MOI) in SF9 cells and harvested at 60 hours post co-infection. P110 gamma was infected at 1 MOI and harvested at 60 hours post infection.
(§3) For purification, PI3Ks are purified by Ni-NTA Agarose (Qiagen #30250) followed by Mono Q 10/100 GL (Ge Healthcare #17-5167-01). VPS34 is purified by Glutathione Sepharose 4 Fast Flow (GE Healthcare #17-5132-03) followed by HiTrap Q (GE Healthcare #17-1153-01).
(§4) 0.5 uL compounds in DMSO are added to wells of a 384 well microtitre plate (Corning 3575). At room temperature: 10 ul PI3K reaction buffer (50 mM Hepes, 5 mM DTT, 150 mM NaCl, 10 mM beta-glycerophosphate, 10 mM MgCl2, 0.25 mM sodium cholate and 0.001% CHAPS, pH 7.00) containing ATP (25 uM, Promega) is added followed immediately by 10 ul PI3K reaction buffer containing di-C8 P1(4,5)P2 (3.5 uM, CellSignals) and PI3Kalpha (0.4875 nM, Millennium Protein Sciences Group) and the mixture is incubated with shaking at room temperature for 30 minutes. Then 5 ul PI3K stop mix (50 mM Hepes, 5 mM DTT, 150 mM NaCl, 0.01% Tween-20, 15 mM EDTA and 25 nM biotin-PI(3,4,5)P3 (Echelon) is added to quench the reaction followed immediately by addition of 5 ul HTRF detection mix (50 mM Hepes, 5 mM DTT, 150 mM NaCl, 0.01% Tween-20, 40 mM KF, 1.0 nM GST:GRP-1 PH domain (Millennium Protein Sciences Group), 15 nM Streptavidin-XL (CisBio) and 0.375 nM anti-GST Eu++ antibody (CisBio) at pH 7.00). The plates are then incubated for 1 hour at room temperature with shaking and then read on a BMG PheraStar Plus reader.
(§5) 2) Human PI3K beta, delta and gamma isoforms are tested using the procedure described for PI3K alpha above but with the following changes: PI3K beta (5.25 nM), PI3K delta (0.75 nM) and PI3K gamma (5 nM). All isoforms supplied by Millennium Protein Science Group.
(§6) For the assay methods described above, test compound percent inhibition, at various concentrations, is calculated relative to control (DMSO and EDTA) treated samples. Compound concentration versus percent inhibition curves are fitted to generate IC50 values. One skilled in the art will appreciate that the values generated either as percentage inhibition at a single concentration or IC50 values are subject to experimental variation.

The next assay has as its target T4, Human PI3K gamma (Homo sapiens, UniProt P48736).
T4 construct: His (N); host or cells: SF9 insect cells (baculovirus)
As to the kind of experiment: Human PI3K gamma enzyme assay (HTRF). The settings on record: concentration not given, b1389 states 1.0 μM for PI3K δ and γ; for inhibition at 1 µM: read-out: p110 gamma Percent Inhibition.
Source text: as §1, §2, §3, §4, §5, §6

T2 sequence (P42338 whole entry): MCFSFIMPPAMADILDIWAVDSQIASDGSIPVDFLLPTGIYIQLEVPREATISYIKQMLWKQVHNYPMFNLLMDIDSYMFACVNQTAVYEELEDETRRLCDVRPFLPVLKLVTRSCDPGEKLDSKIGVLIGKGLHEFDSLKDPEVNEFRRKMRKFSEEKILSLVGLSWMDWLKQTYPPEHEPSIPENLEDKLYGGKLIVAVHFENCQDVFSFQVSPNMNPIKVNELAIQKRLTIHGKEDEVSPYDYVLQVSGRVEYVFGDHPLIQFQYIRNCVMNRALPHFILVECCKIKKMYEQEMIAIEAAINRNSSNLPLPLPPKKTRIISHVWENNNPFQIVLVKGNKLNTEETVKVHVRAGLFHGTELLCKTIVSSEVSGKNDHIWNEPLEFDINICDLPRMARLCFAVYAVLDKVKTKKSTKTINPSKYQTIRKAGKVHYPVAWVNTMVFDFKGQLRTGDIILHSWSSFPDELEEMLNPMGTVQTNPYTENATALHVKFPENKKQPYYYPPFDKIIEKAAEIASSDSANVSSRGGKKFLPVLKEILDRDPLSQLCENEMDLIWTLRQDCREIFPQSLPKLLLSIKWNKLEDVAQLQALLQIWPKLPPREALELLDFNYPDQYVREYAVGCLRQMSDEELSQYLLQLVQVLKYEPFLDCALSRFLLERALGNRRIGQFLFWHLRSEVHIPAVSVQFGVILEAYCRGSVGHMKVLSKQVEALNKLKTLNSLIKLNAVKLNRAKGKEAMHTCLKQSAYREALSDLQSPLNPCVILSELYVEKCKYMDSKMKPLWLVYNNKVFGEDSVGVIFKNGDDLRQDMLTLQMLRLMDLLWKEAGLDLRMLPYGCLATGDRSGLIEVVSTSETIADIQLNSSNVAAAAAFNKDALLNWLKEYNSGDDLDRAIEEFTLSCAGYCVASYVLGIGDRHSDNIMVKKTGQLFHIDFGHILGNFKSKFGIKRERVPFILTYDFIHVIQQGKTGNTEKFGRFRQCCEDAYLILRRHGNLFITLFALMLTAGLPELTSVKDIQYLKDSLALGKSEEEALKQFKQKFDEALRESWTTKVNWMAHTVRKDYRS
T2 sequence (P27986 whole entry partner): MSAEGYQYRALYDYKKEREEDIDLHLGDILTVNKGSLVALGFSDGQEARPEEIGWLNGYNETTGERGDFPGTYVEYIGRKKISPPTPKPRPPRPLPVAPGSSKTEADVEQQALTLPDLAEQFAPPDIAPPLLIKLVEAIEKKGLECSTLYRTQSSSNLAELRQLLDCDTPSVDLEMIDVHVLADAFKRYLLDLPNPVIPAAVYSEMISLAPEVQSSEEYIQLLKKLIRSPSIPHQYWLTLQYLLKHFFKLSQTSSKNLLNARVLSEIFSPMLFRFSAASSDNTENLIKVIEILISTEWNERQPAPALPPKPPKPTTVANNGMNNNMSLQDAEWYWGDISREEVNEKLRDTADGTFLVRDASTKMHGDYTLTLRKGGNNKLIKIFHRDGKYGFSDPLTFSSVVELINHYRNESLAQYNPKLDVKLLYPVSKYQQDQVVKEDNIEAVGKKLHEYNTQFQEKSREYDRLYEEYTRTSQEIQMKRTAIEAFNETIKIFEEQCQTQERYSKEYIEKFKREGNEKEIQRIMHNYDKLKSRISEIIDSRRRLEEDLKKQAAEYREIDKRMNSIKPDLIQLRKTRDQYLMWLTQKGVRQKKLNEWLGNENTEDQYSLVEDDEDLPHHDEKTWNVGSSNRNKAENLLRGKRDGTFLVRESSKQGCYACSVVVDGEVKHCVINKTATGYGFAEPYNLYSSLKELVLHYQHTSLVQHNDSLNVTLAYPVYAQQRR
T3 sequence (O00329 whole entry): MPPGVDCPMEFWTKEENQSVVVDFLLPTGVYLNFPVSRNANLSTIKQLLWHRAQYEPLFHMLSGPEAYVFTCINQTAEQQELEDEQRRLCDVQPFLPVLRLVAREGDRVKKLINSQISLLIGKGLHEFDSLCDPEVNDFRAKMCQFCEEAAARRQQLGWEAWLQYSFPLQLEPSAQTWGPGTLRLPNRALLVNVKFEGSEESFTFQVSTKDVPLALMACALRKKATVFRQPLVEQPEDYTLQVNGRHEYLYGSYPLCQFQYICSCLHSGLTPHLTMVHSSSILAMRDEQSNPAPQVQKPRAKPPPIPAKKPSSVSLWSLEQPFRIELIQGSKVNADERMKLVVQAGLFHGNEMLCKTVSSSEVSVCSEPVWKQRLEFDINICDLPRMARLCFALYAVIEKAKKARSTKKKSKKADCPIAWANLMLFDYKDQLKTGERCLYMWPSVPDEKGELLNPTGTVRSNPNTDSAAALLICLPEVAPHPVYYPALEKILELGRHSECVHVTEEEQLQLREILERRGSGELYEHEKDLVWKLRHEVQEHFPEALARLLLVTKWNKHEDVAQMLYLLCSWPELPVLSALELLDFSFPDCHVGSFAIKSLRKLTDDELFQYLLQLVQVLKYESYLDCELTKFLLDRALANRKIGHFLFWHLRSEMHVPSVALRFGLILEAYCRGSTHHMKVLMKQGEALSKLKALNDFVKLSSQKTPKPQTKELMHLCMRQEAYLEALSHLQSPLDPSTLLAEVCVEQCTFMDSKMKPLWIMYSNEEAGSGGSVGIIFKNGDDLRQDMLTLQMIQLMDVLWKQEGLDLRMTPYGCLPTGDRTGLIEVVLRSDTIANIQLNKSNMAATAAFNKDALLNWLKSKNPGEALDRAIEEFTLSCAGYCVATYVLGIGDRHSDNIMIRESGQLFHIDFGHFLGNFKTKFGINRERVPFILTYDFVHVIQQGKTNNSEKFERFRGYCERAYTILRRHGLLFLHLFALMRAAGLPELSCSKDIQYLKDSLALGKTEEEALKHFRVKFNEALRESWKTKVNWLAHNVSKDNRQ
T3 sequence (P27986 whole entry partner): as the sequence (P27986 whole entry partner) above
T4 sequence (P48736 whole entry): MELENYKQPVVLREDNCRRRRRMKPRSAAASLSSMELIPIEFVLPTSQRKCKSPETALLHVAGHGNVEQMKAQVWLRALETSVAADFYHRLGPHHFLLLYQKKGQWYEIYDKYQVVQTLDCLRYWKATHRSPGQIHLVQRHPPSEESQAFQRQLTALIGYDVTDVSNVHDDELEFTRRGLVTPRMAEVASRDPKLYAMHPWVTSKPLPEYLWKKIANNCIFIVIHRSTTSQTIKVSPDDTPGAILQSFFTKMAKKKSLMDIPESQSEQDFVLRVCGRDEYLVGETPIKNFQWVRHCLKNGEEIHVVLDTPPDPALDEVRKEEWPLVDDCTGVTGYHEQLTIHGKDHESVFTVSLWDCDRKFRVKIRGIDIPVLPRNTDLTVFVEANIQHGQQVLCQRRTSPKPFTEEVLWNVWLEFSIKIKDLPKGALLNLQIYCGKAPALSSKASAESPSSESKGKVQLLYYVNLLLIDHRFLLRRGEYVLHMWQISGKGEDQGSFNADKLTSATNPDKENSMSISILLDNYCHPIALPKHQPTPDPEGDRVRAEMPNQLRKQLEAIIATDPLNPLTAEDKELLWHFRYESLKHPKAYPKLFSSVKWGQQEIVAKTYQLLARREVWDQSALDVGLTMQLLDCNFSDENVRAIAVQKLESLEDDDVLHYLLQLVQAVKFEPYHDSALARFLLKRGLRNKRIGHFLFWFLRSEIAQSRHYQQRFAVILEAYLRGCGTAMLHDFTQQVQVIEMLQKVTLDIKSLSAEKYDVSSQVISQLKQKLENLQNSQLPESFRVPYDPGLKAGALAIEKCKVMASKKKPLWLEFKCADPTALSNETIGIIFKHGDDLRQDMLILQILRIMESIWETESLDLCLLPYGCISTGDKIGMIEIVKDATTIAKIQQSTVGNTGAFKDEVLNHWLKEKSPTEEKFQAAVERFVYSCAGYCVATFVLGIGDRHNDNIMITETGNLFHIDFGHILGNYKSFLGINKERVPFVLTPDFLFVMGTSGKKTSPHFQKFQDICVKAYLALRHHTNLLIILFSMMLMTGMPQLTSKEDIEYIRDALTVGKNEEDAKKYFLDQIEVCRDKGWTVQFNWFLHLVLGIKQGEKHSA
T1 sequence (P42336 whole entry): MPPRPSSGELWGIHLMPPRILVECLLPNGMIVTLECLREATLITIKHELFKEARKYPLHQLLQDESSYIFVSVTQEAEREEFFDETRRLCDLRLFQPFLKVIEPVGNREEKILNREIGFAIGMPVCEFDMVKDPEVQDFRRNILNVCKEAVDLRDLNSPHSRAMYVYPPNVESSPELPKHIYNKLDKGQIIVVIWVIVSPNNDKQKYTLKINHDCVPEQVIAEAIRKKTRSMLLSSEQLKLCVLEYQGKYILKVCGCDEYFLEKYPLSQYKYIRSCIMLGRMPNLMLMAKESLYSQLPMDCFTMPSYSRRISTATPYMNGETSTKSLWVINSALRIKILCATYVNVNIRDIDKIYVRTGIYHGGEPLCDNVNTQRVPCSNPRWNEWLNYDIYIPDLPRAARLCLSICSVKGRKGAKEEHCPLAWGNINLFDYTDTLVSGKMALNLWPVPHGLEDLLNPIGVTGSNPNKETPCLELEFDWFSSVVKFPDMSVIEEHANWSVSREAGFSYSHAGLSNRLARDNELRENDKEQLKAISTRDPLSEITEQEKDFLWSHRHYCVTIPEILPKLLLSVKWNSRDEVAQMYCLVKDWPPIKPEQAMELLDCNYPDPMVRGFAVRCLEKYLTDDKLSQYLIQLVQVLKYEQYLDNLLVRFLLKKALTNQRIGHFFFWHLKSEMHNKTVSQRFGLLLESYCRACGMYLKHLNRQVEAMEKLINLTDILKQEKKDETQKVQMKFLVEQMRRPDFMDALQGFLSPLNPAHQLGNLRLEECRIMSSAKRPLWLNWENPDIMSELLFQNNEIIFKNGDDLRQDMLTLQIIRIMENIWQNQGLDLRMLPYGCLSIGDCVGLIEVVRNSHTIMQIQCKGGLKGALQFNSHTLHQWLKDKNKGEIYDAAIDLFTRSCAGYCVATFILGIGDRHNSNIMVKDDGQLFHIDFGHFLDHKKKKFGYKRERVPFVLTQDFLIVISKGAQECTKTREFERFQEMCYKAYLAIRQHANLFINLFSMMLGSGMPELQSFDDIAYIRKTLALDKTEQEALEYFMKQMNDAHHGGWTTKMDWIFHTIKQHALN
T1 sequence (P27986 whole entry partner): as the sequence (P27986 whole entry partner) above

As to `CC(=O)Nc1cc(-c2cc(C(c3ccc(Cl)cc3)N3CC[C@H](O)C3)c(-c3nnc[nH]3)s2)ccn1` (stereo partly drawn) [Compound 164], the inhibition at 1.1 µM on Human PI3K alpha came out at 100%; at Human PI3K beta, 107%. Besides, the inhibition at 1 µM on Human PI3K delta stood at 112%; on Human PI3K gamma, 44%.

`CC(c1ccc2ccccc2c1)c1nc(N2CCOCC2)sc1C(=O)O` (stereo not drawn) [Compound 346]: the results for the inhibition at 1.1 µM on Human PI3K alpha and at Human PI3K beta were 21% and 98%, respectively. In addition, the results for the inhibition at 1 µM at Human PI3K delta and at Human PI3K gamma were 98% and 23%, respectively.

In the case of `CC(=O)Nc1cc(-c2nc(C(c3ccc(Cl)cc3)N3CCNCC3)c(-c3nnc[nH]3)s2)ccn1` (stereo not drawn) [Compound 229], the inhibition at 1.1 µM is 62% at Human PI3K alpha and 105% on Human PI3K beta. Also, the results for the inhibition at 1 µM at Human PI3K delta and on Human PI3K gamma were 106% and 16%, respectively.

With `O=C(O)c1sc(-c2ccncc2)cc1C(O)c1ccc2ccccc2c1` (stereo not drawn) [Compound 205, 3-[hydroxy(2-naphthyl)methyl]-5-pyridin-4-ylthiophene-2-carboxylic acid], the inhibition at 1.1 µM came out at 42% at Human PI3K alpha and 114% at Human PI3K beta. The inhibition at 1 µM at Human PI3K delta turned out to be 83%; at Human PI3K gamma, 64%.

Regarding `N#Cc1c(N2CCOCC2)sc(-c2nnn[nH]2)c1Cc1ccc2ccccc2c1` [Compound 316, 2-(morpholin-4-yl)-4-(2-naphthylmethyl)-5-(1H-tetrazol-5-yl)thiophene-3-carbonitrile], the inhibition at 1.1 µM came out at 78% at Human PI3K alpha and 106% on Human PI3K beta. Moreover, the values for the inhibition at 1 µM at Human PI3K delta and on Human PI3K gamma were 111% and 62%, respectively.

For `OC(c1ccc(C(F)(F)F)cc1)c1cc(-c2ccncc2)sc1-c1nnc[nH]1` (stereo not drawn) [Compound 142], the inhibition at 1.1 µM is 15% on Human PI3K alpha and 67% at Human PI3K beta. Besides, the values for the inhibition at 1 µM at Human PI3K delta and on Human PI3K gamma were 47% and 7%, respectively.

With `CC(=O)Nc1cc(-c2cc(C(O)(CCCN(C)C)c3ccc(Cl)cc3)c(-c3nnc[nH]3)s2)ccn1` (stereo not drawn) [Compound 145], the figures for the inhibition at 1.1 µM on Human PI3K alpha and at Human PI3K beta were 64% and 98%, respectively. Besides, the inhibition at 1 µM at Human PI3K delta was found to be 97%; at Human PI3K gamma, 9%.

`COc1cc(C(O)c2cc(-c3ccncc3)sc2-c2nnc[nH]2)c(F)cc1Cl` (stereo not drawn) [Compound 279]: the inhibition at 1.1 µM at Human PI3K alpha is 19%; on Human PI3K beta, 106%. The inhibition at 1 µM on Human PI3K delta is 78%; on Human PI3K gamma, 42%.

As for `C=CCC(c1ccc(Cl)c(Cl)c1)c1c(C(=O)O)sc(N2CCOCC2)c1C#N` (stereo not drawn) [Compound 355, 4-cyano-3-[1-(3,4-dichlorophenyl)but-3-en-1-yl]-5-(morpholin-4-yl)thiophene-2-carboxylic acid], the values for the inhibition at 1.1 µM on Human PI3K alpha and on Human PI3K beta were 44% and 100%, respectively. Besides, the inhibition at 1 µM at Human PI3K delta was 105%; on Human PI3K gamma it was 53%.

Take `COc1ccc2ccc(Cc3nc(N4CCOCC4)sc3C(=O)O)cc2c1` [Compound 335]: the results for the inhibition at 1.1 µM on Human PI3K alpha and at Human PI3K beta were 54% and 111%, respectively. For the same molecule, the inhibition at 1 µM on Human PI3K delta stood at 107%; on Human PI3K gamma it was 31%.

On to `CC(=O)Nc1cc(-c2cc(C(c3ccc(Cl)cc3)N3CC(N(C)C)C3)c(-c3nnc[nH]3)s2)ccn1` (stereo not drawn) [Compound 181, N-{4-[4-{(4-chlorophenyl)[3-(dimethylamino)azetidin-1-yl]-methyl}-5-(4H-1,2,4-triazol-3-yl)-2-thienyl]pyridin-2-yl}acetamide], for which, at Human PI3K alpha, the “p110 alpha Percent Inhibition” value was 85%. For the same molecule, at Human PI3K beta, the “p110 beta Percent Inhibition” value came to 91%. The “p110 delta Percent Inhibition” value at Human PI3K delta is listed as 108%. Moreover, at Human PI3K gamma, the “p110 gamma Percent Inhibition” value is 35%.

For `O=C(O)c1sc(N2CCOCC2)nc1Cc1cc(Cl)c(Cl)cc1F` [Compound 290], the results for the inhibition at 1.1 µM on Human PI3K alpha and at Human PI3K beta were 23% and 104%, respectively. For the same molecule, the inhibition at 1 µM on Human PI3K delta turned out to be 104%; at Human PI3K gamma, 49%.

Regarding `OC(c1ccc(Cl)cc1Cl)c1cc(-c2ccncc2)sc1-c1nnc[nH]1` (stereo not drawn) [Compound 219], the figures for the inhibition at 1.1 µM at Human PI3K alpha and at Human PI3K beta were 32% and 101%, respectively. For the same molecule, the inhibition at 1 µM stood at 107% at Human PI3K delta and 31% at Human PI3K gamma.

Take `CC(=O)Nc1cc(-c2sc(-c3nnc[nH]3)c(Sc3ccc(Cl)cc3)c2C#N)ccn1` [Compound 166]: the inhibition at 1.1 µM at Human PI3K alpha is 92%; at Human PI3K beta, 82%. Moreover, the inhibition at 1 µM was 85% at Human PI3K delta and 3% at Human PI3K gamma.

As for `CC(=O)Nc1cc(-c2cc(C(c3ccc(Cl)cc3)N(C)C3CNC3)c(-c3nnc[nH]3)s2)ccn1` (stereo not drawn) [Compound 274], the inhibition at 1.1 µM stood at 98% at Human PI3K alpha and 109% at Human PI3K beta. Further, the inhibition at 1 µM was determined as 107% at Human PI3K delta and 38% at Human PI3K gamma.

On to `COc1cccc(F)c1C(O)c1cc(-c2ccncc2)sc1-c1nnc[nH]1` (stereo not drawn) [Compound 239], for which the inhibition at 1.1 µM on Human PI3K alpha was found to be 30%; on Human PI3K beta, 68%. The inhibition at 1 µM at Human PI3K delta turned out to be 41%; at Human PI3K gamma, 27%.

As to `CC(=O)Nc1cc(-c2cc(C(c3ccc(Cl)cc3)N3CCC[C@@H]3CO)c(-c3nnc[nH]3)s2)ccn1` (stereo partly drawn) [Compound 268], the inhibition at 1.1 µM on Human PI3K alpha turned out to be 82%; at Human PI3K beta, 95%. In addition, the inhibition at 1 µM is 102% at Human PI3K delta and 16% on Human PI3K gamma.

In the case of `O=C(Nc1cc(-c2cc(C(c3ccc(Cl)cc3)N3CCNCC3)c(-c3nnc[nH]3)s2)ccn1)C1CC1` (stereo not drawn) [Compound 146], the inhibition at 1.1 µM at Human PI3K alpha turned out to be 67%; on Human PI3K beta, 103%. Moreover, the inhibition at 1 µM came out at 110% at Human PI3K delta and 23% at Human PI3K gamma.

Turning to `CC(C)(C)[S+]([O-])NC(c1ccc2ccccc2c1)c1c(C(=O)O)sc(N2CCOCC2)c1C#N` (stereo not drawn) [Compound 323], the values for the inhibition at 1.1 µM at Human PI3K alpha and at Human PI3K beta were 66% and 61%, respectively. The inhibition at 1 µM was determined as 97% on Human PI3K delta and 46% at Human PI3K gamma.

As for `CC(=O)Nc1cc(-c2cc(C(c3ccc(Cl)cc3)N(C)C3CNC3)c(-c3nnc[nH]3)s2)ccn1` (stereo not drawn) [Compound 277], on Human PI3K alpha, the “p110 alpha Percent Inhibition” value is given as 95%. Besides, the “p110 beta Percent Inhibition” value on Human PI3K beta was found to be 97%. Also, at Human PI3K delta, the “p110 delta Percent Inhibition” value amounted to 116%. Further, on Human PI3K gamma, the “p110 gamma Percent Inhibition” value was determined as 55%.

On to `Cc1cc(-c2cc(C(c3ccc(Cl)cc3)N(C)C)c(-c3nnc[nH]3)s2)ccn1` (stereo not drawn) [Compound 161], for which the inhibition at 1.1 µM at Human PI3K alpha came to 14%; at Human PI3K beta, 60%. Also, the inhibition at 1 µM at Human PI3K delta came out at 40%; on Human PI3K gamma, 7%.
